From paper PMC5055185, “Dual pharmacological inhibition of glutathione and thioredoxin systems synergizes to kill colorectal carcinoma stem cells” (Cancer Medicine, 2016)

Assays:
[1] = tested on: NRF2 target genes in human embryonic fibroblasts OUMS36 or TIG-3; assay: qRT-PCR of NRF2 and TP53 target genes in fibroblasts; type: cell-based; conditions: auranofin 2 μmol/L or piperlongumine 5 μmol/L for 24 h
Description: Total RNA was purified using RNAiso Plus (Takara, Osaka, Japan). Reverse transcription was performed using PrimeScript™ with gDNA Eraser (Takara). For quantifying the copy number of each mRNA, we used a StepOne™ Real‐Time PCR System (Applied Biosystems, Waltham, MA) and the Taqman® method. Data were calculated according to the modified delta‐cycle of threshold (ΔCT) method. Normalized Log2 expression was defined as follows: (Log2 expression of a gene of interest) = 30 (arbitrary constant) + (CT of 18S rRNA) − (CT of a gene of interest). We used Log2 parameter for statistical analysis because mRNA expression follows a log‐normal distribution, whereas ΔCT follows normal distribution. A gene‐specific fluorescent probe was designed using a web‐based program (https://qpcr.probefinder.com/organism.jsp). […] Gene‐specific Taqman® probes were purchased from Life Technologies, (Waltham, MA, for Cat#, see Table S1 SpreadSheet2). For PCR, Thunderbird® Probe qPCR mix (Toyobo, Osaka, Japan) was used and the PCR conditions consisted of 40 cycles of two steps (95°C for 15 sec and 60°C for 50 sec).
To investigate whether NRF2 compensation occurs in fibroblasts, we quantified gene induction of NRF2 target genes by auranofin (2 μmol/L for 24 h) or piperlongumine (5 μmol/L for 24 h). […] Basal phosphorylation of NRF2 was lower in fibroblasts, compared to CTOSs (Fig. S5B). The significance of expression changes due to the exposure were as follows: GCLM (Fig. S6, Aura: P = 0.001, up‐regulated, Pipe: P = 0.009, up‐regulated), TXNRD1 (Fig. S6, Aura: P = 0.001, up‐regulated, Pipe: P = 0.439), and G6PD (Fig. S6, Aura: P = 0.001, up‐regulated, Pipe: P = 0.130).
Human embryonic fibroblasts OUMS36 or TIG-3 was incubated with designated concentration of inhibitor for 24 hours. mRNA expression of each gene was quantified by real-time RT-PCR and expression level was indicated as relative Log2 expression. Each bar indicates mean value of Log2 expression (n=3 at different passage points). Error bar indicates standard deviation. P-values of difference are described in Results.

HCT116 CRC cell line = assay: intracellular ROS, CellROX Deep Red flow cytometry, HCT116; type: cell-based, human; conditions: treated 1 h (menadione 100 μmol/L, 30 min)
Description: In order to estimate the effect of each inhibitor described above, intracellular reactive oxygen species (ROS) were measured using CellROX™ Deep Red reagent (Molecular Probes). Briefly, cells were seeded on 6‐well plates at 1 × 10^6 cells per well. After cells reached 90% confluence, cells were treated with designated reagents for 1 h. CellROX™ Deep Red reagent was added at a final concentration of 5 μmol/L to the culture medium and then incubated for 30 min at 37°C. Subsequently, the medium was removed and the cells were washed with PBS and detached using 0.25% trypsin‐EDTA. The resulting fluorescence was measured using a FACS Calibur flow cytometer (Becton Dickinson, Franklin Lakes, NJ). Menadione (100 μmol/L) was added 30 min before CellROX™ Deep Red reagent treatment as a reference ROS inducer. […] CD44v9 positivity of CTOS cells was analyzed as follows: Cancer spheroids were dispersed with serial treatments of TrypLE™ (20 min, GIBCO) and Accumax™ (10 min, Innovative Cell Technologies, San Diego, CA). Cell surface CD44v9 was stained with CD44v9 antibody (Cosmobio) as well as PE‐conjugated anti‐rat IgG2a (Becton Dickinson). The fluorescence was measured using a FACS Calibur flow cytometer (Becton Dickinson). Since CTOSs contained abundant auto‐fluorescent cells, we defined FL2^+FL1^− cells as authentic PE‐positive (Fig. S4). Thus, CD44v9‐positive rate was defined as FL2^+FL1^−/total live cells and CD44v9‐positive fraction was further gated and split between CD44v9^low and CD44v9^high (Fig. S4), to calculate the mean fluorescent intensity of CD44v9^high fraction.
One hour after each drug treatment, cells were stained with CellROX DeepRed and intracellular ROS were quantified with FACS. Upper: histogram of fluorescent signal is represented. Lower. representative mean fluorescent intensity scores are shown. Note that without drug treatment (Control), intracellular ROS is higher in OUMS36 and TIG3 (embryonic fibroblasts) but lower in DLD-1 and HCT116 (CRC cell lines). ROS in DLD-1 was increased by auranofin. ROS in HCT116 was increased by all the inhibitors tested. Menadione was used as a reference chemical to increase ROS.

SMILES | G6PD mRNA expression change [1] | GCLM mRNA expression change [1] | TXNRD1 mRNA expression change [1] | intracellular ROS response (HCT116 CRC cell line)
CC[PH](CC)(CC)[Au][S][C@@H]1O[C@H](COC(C)=O)[C@@H](OC(C)=O)[C@H](OC(C)=O)[C@H]1OC(C)=O [Aura, Auranofin] | up‐regulated | up‐regulated | up‐regulated | increase of ROS
COc1cc(/C=C/C(=O)N2CCC=CC2=O)cc(OC)c1OC [Pipe, Piperlongumine] | – | up‐regulated | – | increase of ROS
